Measurements from patent US20160362416A1, “ANTIVIRAL COMPOUNDS” (Gilead Sciences, Inc., priority 2012, published 2016).

Tests used:
Format in all cases: cell-based
[1] = tested on: stable HCV 2a JFH-1 Rluc replicon cells (L31 present in NS5A); assay: HCV genotype 2a JFH-1 RLuc replicon reporter assay; conditions: Hepatitis C virus, 72 h, read-out: 2a JFH (nM)
Procedure: (§1) Evaluation of cell-based anti-HCV activity: Antiviral potency (EC50) was determined using a Renilla luciferase (RLuc)-based HCV replicon reporter assay. To perform the assay for genotype 1 and 2a JFH-1, stable HCV 1a RLuc replicon cells (harboring a dicistronic genotype 1a H77 replicon that encodes a RLuc reporter), stable HCV lb RLuc replicon cells (harboring a dicistronic genotype 1b Conl replicon that encodes a RLuc reporter), or stable HCV 2a JFH-1 Rluc replicon cells (harboring a dicistronic genotype 2a JFH-1 replicon that encodes a RLuc reporter; with L31 present in NS5A) were dispensed into 384-well plates for EC50 assays. To perform the assay for genotype 2a (with M31 present in NS5A) or 2b, NS5A chimeric genotype 2a JFH-1 replicons that encodes a RLuc-Neo reporter and either genotype 2a J6 strain NS5A gene or genotype 2b MD2b-1 strain NS5A gene (both with M31 present) respectively, were either transiently transfected (t) into Huh-Lunet cells or were established as stably replicating replicon cells (s) is provided. Either cells were dispensed into 384-well plates for EC50 assays. To perform the assay for genotype 3 and 4, NS5A chimeric genotype 1b Conl replicons that encodes a Pi-RLuc reporter and either genotype 3a S52 strain NS5A gene or genotype 4a ED43 strain NS5A gene respectively, were transiently transfected (t) into Huh-Lunet cells, which were subsequently dispensed into 384-well plates. Compounds were dissolved in DMSO at a concentration of 10 mM and diluted in DMSO either manually or using an automated pipeting instrument. Serially 3-fold diluted compounds were either manually mixed with cell culture media and added to the seeded cells or directly added to the cells using an automated instrument. DMSO was used as a negative (solvent; no inhibition) control, and the protease inhibitor ITMN-191 was included at a concentration >100×EC50 as a positive control. 72 hours later, cells were lysed and Renilla luciferase activity quantified as recommended by the manufacturer (Promega-Madison, Wis.). Non-linear regression was performed to calculate EC50 values.

[2] = tested on: NS5A chimeric genotype 2a JFH-1 replicon with genotype 2b MD2b-1 strain NS5A gene (M31); assay: HCV genotype 2b NS5A chimeric replicon assay, stable (s); conditions: Hepatitis C virus, 72 h, read-out: 2b (s) (nM)
Procedure: as §1

[3] = tested on: NS5A chimeric genotype 2a JFH-1 replicon with genotype 2a J6 strain NS5A gene (M31); assay: HCV genotype 2a J6 NS5A chimeric replicon assay, transient (t); conditions: Hepatitis C virus, 72 h, read-out: 2a J6 (t) (nM)
Procedure: as §1

[4] = tested on: stable HCV 1a RLuc replicon cells (genotype 1a H77 replicon); assay: HCV genotype 1a RLuc replicon reporter assay; conditions: Hepatitis C virus; stable genotype 1a H77 RLuc replicon cells, 72 hours
Procedure: as §1

[5] = tested on: NS5A chimeric genotype 1b Con1 replicon with genotype 4a ED43 strain NS5A gene; assay: HCV genotype 4a NS5A chimeric replicon assay; conditions: Hepatitis C virus, 72 h, read-out: 4a (s) (nM)
Procedure: as §1, with “[…],” for “were transiently transfected (t) into Huh-Lunet cells,”

[6] = tested on: stable HCV 1b RLuc replicon cells (genotype 1b Con1 replicon); assay: HCV genotype 1b RLuc replicon reporter assay; conditions: Hepatitis C virus; stable genotype 1b Con1 RLuc replicon cells, 72 hours
Procedure: as §1

[7] = tested on: NS5A chimeric genotype 1b Con1 replicon with genotype 3a S52 strain NS5A gene; assay: HCV genotype 3a NS5A chimeric replicon assay; conditions: Hepatitis C virus, 72 h, read-out: 3a (nM)
Procedure: as §1

Structure (SMILES)	EC50 [1]	EC50 [2]	EC50 [3]	EC50 [4]	EC50 [5]	EC50 [6]	EC50 [7]
COC(=O)N[C@H](C(=O)N1[C@@H](C)CC[C@H]1c1ncc(-c2ccc3c(c2)COc2cc4c(ccc5nc([C@@H]6CC[C@H](C)N6C(=O)[C@@H](NC(=O)OC)C6(C)CCOCC6)[nH]c54)cc2-3)[nH]1)C(C)C [Example AD, Methyl [(2S)-1-{(2S,5S)-2-[5-(2-{(2S,5S)-1-[(2S)-2-[(methoxycarbonyl)amino]-2-(4-methyltetrahydro-2H-pyran-4-yl)acetyl]-5-methylpyrrolidin-2-yl}-1,11-dihydroisochromeno[4′,3′:6,7]naphtho[1,2-d]imidazol-9-yl)-1H-imidazol-2-yl]-5-methylpyrrolidin-1-yl}-3-methyl-1-oxobutan-2-yl]carbamate]	0.027 nM	0.351 nM	1.02 nM	0.021 nM	0.018 nM	0.031 nM	0.074 nM
CC[C@H]1CC[C@@H](c2nc3ccc4cc5c(cc4c3[nH]2)OCc2cc(-c3cnc([C@@H]4CC[C@H](C)N4C(=O)[C@@H](NC(=O)OC)C(C)C)[nH]3)ccc2-5)N1C(=O)[C@@H](NC(=O)OC)[C@@H]1CCCOC1 [Example AH, Methyl{(1S)-2-[(2S,5S)-2-ethyl-5-(9-{2-[(2S,5S)-1-{(2S)-2-[(methoxycarbonyl)amino]-3-methylbutanoyl}-5-methylpyrrolidin-2-yl]-1H-imidazol-5-yl}-1,11-dihydroisochromeno[4′,3′:6,7]naphtho[1,2-d]imidazol-2-yl)pyrrolidin-1-yl]-2-oxo-1-[(3S)-tetrahydro-2H-pyran-3-yl]ethyl}carbamate]	0.031 nM	0.104 nM	0.172 nM	0.026 nM	0.017 nM	0.021 nM	0.154 nM
COC(=O)N[C@H](C(=O)N1[C@@H](C)CC[C@H]1c1nc2ccc3cc4c(cc3c2[nH]1)OCc1cc(-c2cnc([C@@H]3CC[C@H](C)N3C(=O)[C@@H](NC(=O)OC)C3(C)CCOCC3)[nH]2)ccc1-4)C(C)C [Example AL, Methyl [(2S)-1-{(2S,5S)-2-[9-(2-{(2S,5S)-1-[(2S)-2-[(methoxycarbonyl)amino]-2-(4-methyltetrahydro-2H-pyran-4-yl)acetyl]-5-methylpyrrolidin-2-yl}-1H-imidazol-5-yl)-1,11-dihydroisochromeno[4′,3′:6,7]naphtho[1,2-d]imidazol-2-yl]-5-methylpyrrolidin-1-yl}-3-methyl-1-oxobutan-2-yl]carbamate]	0.026 nM	0.713 nM	0.776 nM	0.02 nM	0.028 nM	0.03 nM	0.086 nM
COC(=O)N[C@H](C(=O)N1CCC[C@H]1c1ncc(-c2ccc3c(c2)COc2cc4c(ccc5nc([C@@H]6CCCN6C(=O)[C@@H](NC(=O)OC)C6CCOCC6)[nH]c54)cc2-3)[nH]1)C1CCOCC1 [Comp 11, reference compound]	–	0.203 nM	–	0.203 nM	–	0.416 nM	–
COC(=O)N[C@H](C(=O)N1[C@@H](C)CC[C@H]1c1nc2ccc3cc4c(cc3c2[nH]1)OCc1cc(-c2cnc([C@@H]3CC[C@H](C)N3C(=O)[C@H](NC(=O)OC)[C@H]3C[C@@H](C)O[C@@H](C)C3)[nH]2)ccc1-4)C(C)C [Example AP, Methyl {(2S)-1-[(2S,5S)-2-(9-{2-[(2S,5S)-1-{(2R)-2-[(2R,6S)-2,6-dimethyltetrahydro-2H-pyran-4-yl]-2-[(methoxycarbonyl)amino]acetyl}-5-methylpyrrolidin-2-yl]-1H-imidazol-5-yl}-1,11-dihydroisochromeno[4′,3′:6,7]naphtho[1,2-d]imidazol-2-yl)-5-methylpyrrolidin-1-yl]-3-methyl-1-oxobutan-2-yl}carbamate]	1.1 nM	4.44 nM	4.44 nM	1.52 nM	1.19 nM	0.038 nM	4.44 nM
CCOC(=O)N[C@H](C(=O)N1[C@@H](C)CC[C@H]1c1ncc(-c2ccc3c(c2)COc2cc4c(ccc5nc([C@@H]6CC[C@H](C)N6C(=O)[C@@H](NC(=O)OCC)C6C[C@@H](C)O[C@H](C)C6)[nH]c54)cc2-3)[nH]1)C1C[C@@H](C)O[C@H](C)C1 (stereo partly drawn) [Example BM, Ethyl {(1S)-1-[(2R,6R)-2,6-dimethyltetrahydro-2H-pyran-4-yl]-2-[(2S,5S)-2-(5-{2-[(2S,5S)-1-{(2S)-2-[(2R,6R)-2,6-dimethyltetrahydro-2H-pyran-4-yl]-2-[(ethoxycarbonyl)amino]acetyl}-5-methylpyrrolidin-2-yl]-1,11-dihydroisochromeno[4′,3′:6,7]naphtho[1,2-d]imidazol-9-yl}-1H-imidazol-2-yl)-5-methylpyrrolidin-1-yl]-2-oxoethyl}carbamate]	0.023 nM	–	–	0.034 nM	0.039 nM	0.053 nM	0.143 nM
COC(=O)N[C@H](C(=O)N1[C@@H](c2ncc(-c3ccc4c(c3)COc3cc5c(ccc6nc([C@H]7C[C@@H](C)[C@@H](C)N7C(=O)[C@@H](NC(=O)OC)C7C[C@@H](C)O[C@H](C)C7)[nH]c65)cc3-4)[nH]2)C[C@@H](C)[C@H]1C)C1C[C@@H](C)O[C@H](C)C1 (stereo partly drawn) [Example BC, Methyl {(1S)-1-[(2R,6R)-2,6-dimethyltetrahydro-2H-pyran-4-yl]-2-[(2R,3R,5R)-5-(5-{2-[(2R,4R,5R)-1-{(2S)-2-[(2R,6R)-2,6-dimethyltetrahydro-2H-pyran-4-yl]-2-[(methoxycarbonyl)amino]acetyl}-4,5-dimethylpyrrolidin-2-yl]-1,11-dihydroisochromeno[4′,3′:6,7]naphtho[1,2-d]imidazol-9-yl}-1H-imidazol-2-yl)-2,3-dimethylpyrrolidin-1-yl]-2-oxoethyl}carbamate]	8.04 nM	23.1 nM	–	10.1 nM	6.24 nM	2.47 nM	23.3 nM
COC[C@H]1C[C@@H](c2ncc(-c3ccc4c(c3)COc3cc5c(ccc6nc([C@@H]7CC[C@H](C)N7C(=O)[C@@H](NC(=O)OC)C(C)C)[nH]c65)cc3-4)[nH]2)N(C(=O)[C@@H](NC(=O)OC)C2CCOCC2)C1 [Comp 2, reference compound]	–	–	0.083 nM	0.055 nM	–	0.064 nM	–
